The record followed here is patent US12427212B2, “Nectin-4 binding miniproteins, conjugates and uses thereof” (Aktis Oncology, Inc., priority 2023, dated 2025).

For data set [1], the system named is Opossum kidney proximal tubule cells. The data set can be described thus: Proximal tubule epithelial cell uptake assay. It counts as cell-based. The conditions noted are these: relative to control miniprotein C306; for % Uptake of C306 (Control): Table 10A, mean percent uptake in opossum kidney cells, 1 h at 37° C.; for % Uptake of C306: Table 10B, opossum kidney proximal tubule cells, modified lysine miniproteins. As to the method:
FIG. 8 is a bar graph of the percent uptake of exemplary miniproteins tested at 20 µM in a proximal tubule epithelial cell assay vs 20 μM control peptide set at 100%. […]
Opossum kidney proximal tubule cells were plated in the upper chamber of 24-well transwell plates containing 600 μL of growth media in the lower chamber and were incubated overnight at 37° C., in 5% CO2. The following day, the media was changed, and cells were incubated an additional 24 h with orbital shaking at 146 RPM. Next, cells were washed and treated in duplicates with biotinylated exemplary miniproteins pre-complexed with streptavidin-AF647 for 1 h at 37° C., and 5% C02 with continuous orbital shaking. Following incubation, cells were washed three times with 1×PBS and lysed with RIPA buffer containing protease and phosphatase inhibitor cocktail and a universal nuclease for 30 minutes. Uptake was measured on 100 μL of lysates using a fluorimeter. Mean % uptake values of control miniprotein C306 in the presence of exemplary miniproteins are provided in TABLE 10A and summarized in FIG. 8.
Uptake of engineered Nectin-4 miniproteins with further modified lysine residues (C298-C304, as described in Example 4B) was evaluated. Percent uptake of these exemplary Nectin-4-targeting miniproteins and C251 were determined against a control miniprotein, C306, using opossum kidney proximal tubule cells as described in Example 18A. Percent uptake of C298, which has an unmodified lysine (K) at amino acid position 26 (along the length of the miniprotein sequence. SEQ ID NO: 162), was 37% in the presence of […]. All other miniproteins having a modified lysine (modified with one or more small alkyl groups of monomethyl, dimethyl, trimethyl, or isopropyl group) had (i) kidney uptake similar to that of C251 and (ii) reduced uptake as compared to C298, which has an unmodified lysine at position 26.

Data set [2] is described as follows: In vivo biodistribution of 111In-labeled miniproteins by SPECT/CT, HT-1376 xenograft. Further details: species or system mouse. The conditions noted are these: female, athymic nude, mouse, in vivo. An excerpt:
HT-1376 is a human cell line that expresses Nectin-4.
Humane endpoints: All animals were euthanized following the final imaging time point and carcasses were discarded according to IACUC protocols.
Image Processing: Images were generated as SPECT/CT pairs with the SPECT reported in units of activity.
Image generation: After the preprocessing described in A, individual maximum intensity projections (MIPs) were created with VivoQuant software for each subject at each time point and scaled in percent injected dose per gram (% ID/g). The CT for each image was windowed from −500 to 4500 Hounsfield Units (HU). The SPECT was windowed at various ranges to highlight different regions of uptake. Images were then stitched together using Image Magick based python tools to create montages of subjects over time and time points over groups.

Data set [3] is described as follows: In vitro metabolic stability in serum/plasma (percent parent remaining, LC-MS). The conditions noted are these: mouse. It is filed as in vitro ADME. As to the method:
Exemplary miniproteins were spiked into biological matrices at initial concentration between 1-2 μM. Tested matrices were varied by species (mouse, rat, human) and type (plasma, serum, and kidney brush border membrane (kBBM) preparations tested each from 0.625-100 μg/mL protein content). Tested conditions were incubated with miniproteins at 37° C. for 4 h. At collection points of 0, 15, 30, 60, 120, 240 minutes, 50 μL of each condition were quenched by organic solvent (methanol or acetonitrile) or the addition of 4% phosphoric acid solution followed by solid-phase extraction. Fractions of each quenched timepoint were subsequently assayed for parent miniproteins concentration by high resolution LC-MS. Percent-parent-remaining-time plots were constructed from the ratio of each given time collection to the time-zero parent miniprotein. Percent-parent-remaining in mouse serum and plasma for exemplary miniproteins are recorded in TABLE 11.

Bridges are numbered along the chain shown (N, C = ends). Primed or numbered codes have the meaning given here. [ ]: non-standard residue; d: D form. The star is where a group is joined. DOTA = O=C(O)CN1CCN(CC(=O)O)CCN(CC(=O)*)CCN(CC(=O)O)CC1; Arg(NO2) = N=C(NCCC[C@H](N)C(=O)O)N[N+](=O)[O-]; Biotin = O=C1N[C@H]2[C@H](CS[C@H]2CCCCC(=O)*)N1; Lys(Me3) = C[N+](C)(C)CCCC[C@H](N)C(=O)O; Cit = NC(=O)NCCC[C@H](N)C(=O)O; Lys(Me) = CNCCCC[C@H](N)C(=O)O; PEG4 = NCCOCCOCCOCCOCCC(=O)O; PEG4″ = 4(ethylene glycol); PEG4′ = not defined here

As for “C262: exemplary Nectin-4 miniprotein compound ({Biotin-PEG4″}-CEYDEQFFTALARLRGADICEYIQA[Lys(Me3)]FQYLPGLCIEEILDNLGCS-OH; disulfide 1-34, 20-44) [Compound C262]”, the “% Uptake of C306 (Control)” value in data set [1] was found to be 1.27%.
Turning to “{Biotin-PEG4}-CEYDEEFFTAL[Lys(Me)]RLRGGDICQYIQA[Lys(Me3)]FQYLPALCIEEILDNLGCS-OH (disulfide 1-34, 20-44) [Compound C302]”, in data set [1], the “% Uptake of C306” value was found to be 2%.
For the compound “C282 ({Biotin-PEG4″}-CEYDEQFFTALARLRGGDICEYIQA[Arg(NO2)]FQYLPGLCIEEILDNLGCS-OH; disulfide 1-34, 20-44) [Compound C282]”, the “% Uptake of C306 (Control)” value in data set [1] is given as 2.14 (n = 1) %.
Take “C281 ({Biotin-PEG4′}-CEYDEQFFTALARLRGGDICEYIQA[Cit]FQYLPGLCIEEILDNLGCS-OH; disulfide 1-34, 20-44) [Compound C281]”: the “% Uptake of C306 (Control)” value in data set [1] is 0.006%.
Take `CC[C@H](C)[C@@H]1NC(=O)[C@H](Cc2ccc(O)cc2)NC(=O)[C@H](Cc2ccc(O)cc2)NC(=O)[C@@H]2CSSC[C@@H](C(=O)N[C@@H](CO)C(=O)O)NC(=O)CNC(=O)[C@H](CC(C)C)NC(=O)[C@H](CC(N)=O)NC(=O)[C@H](CC(=O)O)NC(=O)[C@H](CC(C)C)NC(=O)[C@H]([C@@H](C)CC)NC(=O)[C@H](CCC(=O)O)NC(=O)[C@H](CCC(=O)O)NC(=O)[C@H]([C@@H](C)CC)NC(=O)[C@H](CSSC[C@H](NC(=O)CCOCCOCCOCCOCCNC(=O)CCCC[C@@H]3SC[C@@H]4NC(=O)N[C@@H]43)C(=O)N[C@@H](CCC(=O)O)C(=O)N[C@@H](Cc3ccc(O)cc3)C(=O)N[C@@H](CC(=O)O)C(=O)N[C@@H](CCC(=O)O)C(=O)N[C@@H](CCC(=O)O)C(=O)N[C@@H](Cc3ccccc3)C(=O)N[C@@H](Cc3ccccc3)C(=O)N[C@@H]([C@@H](C)O)C(=O)N[C@@H](C)C(=O)N[C@@H](CC(C)C)C(=O)N[C@@H](CCCCN)C(=O)N[C@@H](CCCNC(=N)N)C(=O)N[C@@H](CC(C)C)C(=O)N[C@@H](CCCNC(=N)N)C(=O)NCC(=O)NCC(=O)N[C@@H](CC(=O)O)C(=O)N[C@@H]([C@@H](C)CC)C(=O)N2)NC(=O)[C@H](CC(C)C)NC(=O)CNC(=O)[C@@H]2CCCN2C(=O)[C@H](CC(C)C)NC(=O)[C@H](Cc2ccc(O)cc2)NC(=O)[C@H](CCC(N)=O)NC(=O)[C@H](Cc2ccccc2)NC(=O)[C@H](CO)NC(=O)[C@H](C)NC(=O)[C@H](CCC(N)=O)NC1=O` [Compound C111]: in data set [1], the “% Uptake of C306 (Control)” value is given as 20.8%.
The same measure, in the same setting: the figure for “C306: control miniprotein of the proximal tubule cell uptake assay ({Biotin-PEG4′}-CEYDEEFFTALKRLRGGDICYYIKKKFKKVPKLCIEEILDKLGC-NH2; disulfide 1-34, 20-44) [Compound C306, reference compound]” is 100%.
On to `CC[C@H](C)[C@@H]1NC(=O)[C@H](Cc2ccc(O)cc2)NC(=O)[C@H](CCC(N)=O)NC(=O)[C@@H]2CSSC[C@@H](C(=O)N[C@@H](CO)C(=O)O)NC(=O)CNC(=O)[C@H](CC(C)C)NC(=O)[C@H](CC(N)=O)NC(=O)[C@H](CC(=O)O)NC(=O)[C@H](CC(C)C)NC(=O)[C@H]([C@@H](C)CC)NC(=O)[C@H](CCC(=O)O)NC(=O)[C@H](CCC(=O)O)NC(=O)[C@H]([C@@H](C)CC)NC(=O)[C@H](CSSC[C@H](NC(=O)CCOCCOCCOCCOCCNC(=O)CCCC[C@@H]3SC[C@@H]4NC(=O)N[C@@H]43)C(=O)N[C@@H](CCC(=O)O)C(=O)N[C@@H](Cc3ccc(O)cc3)C(=O)N[C@@H](CC(=O)O)C(=O)N[C@@H](CCC(=O)O)C(=O)N[C@@H](CCC(=O)O)C(=O)N[C@@H](Cc3ccccc3)C(=O)N[C@@H](Cc3ccccc3)C(=O)N[C@@H]([C@@H](C)O)C(=O)N[C@@H](C)C(=O)N[C@@H](CC(C)C)C(=O)N[C@@H](C)C(=O)N[C@@H](CCCNC(=N)N)C(=O)N[C@@H](CC(C)C)C(=O)N[C@@H](CCCNC(=N)N)C(=O)NCC(=O)NCC(=O)N[C@@H](CC(=O)O)C(=O)N[C@@H]([C@@H](C)CC)C(=O)N2)NC(=O)[C@H](CC(C)C)NC(=O)[C@H](C)NC(=O)[C@@H]2CCCN2C(=O)[C@H](CC(C)C)NC(=O)[C@H](Cc2ccc(O)cc2)NC(=O)[C@H](CCC(N)=O)NC(=O)[C@H](Cc2ccccc2)NC(=O)[C@H](CCCCN(C)C)NC(=O)[C@H](C)NC(=O)[C@H](CCC(N)=O)NC1=O` [Compound C300], for which the “% Uptake of C306” value in data set [1] was determined as 3%.
Turning to `CC[C@H](C)[C@@H]1NC(=O)[C@H](Cc2ccc(O)cc2)NC(=O)[C@H](CC(=O)O)NC(=O)[C@@H]2CSSC[C@@H](C(=O)N[C@@H](CO)C(=O)O)NC(=O)CNC(=O)[C@H](CC(C)C)NC(=O)[C@H](CC(N)=O)NC(=O)[C@H](CC(=O)O)NC(=O)[C@H](CC(C)C)NC(=O)[C@H]([C@@H](C)CC)NC(=O)[C@H](CCC(=O)O)NC(=O)[C@H](CCC(=O)O)NC(=O)[C@H]([C@@H](C)CC)NC(=O)[C@H](CSSC[C@H](NC(=O)CCOCCOCCOCCOCCNC(=O)CN3CCN(CC(=O)O)CCN(CC(=O)O)CCN(CC(=O)O)CC3)C(=O)N[C@@H](CCC(=O)O)C(=O)N[C@@H](Cc3ccc(O)cc3)C(=O)N[C@@H](CC(=O)O)C(=O)N[C@@H](CCC(=O)O)C(=O)N[C@@H](CCC(N)=O)C(=O)N[C@@H](Cc3ccccc3)C(=O)N[C@@H](Cc3ccccc3)C(=O)N[C@@H]([C@@H](C)O)C(=O)N[C@@H](C)C(=O)N[C@@H](CC(C)C)C(=O)N[C@@H](CCCCN)C(=O)N[C@@H](CCCNC(=N)N)C(=O)N[C@@H](CC(C)C)C(=O)N[C@@H](CCCNC(=N)N)C(=O)NCC(=O)N[C@@H](CC(=O)O)C(=O)N[C@@H](CC(=O)O)C(=O)N[C@@H]([C@@H](C)CC)C(=O)N2)NC(=O)[C@H](CC(C)C)NC(=O)CNC(=O)[C@@H]2CCCN2C(=O)[C@H](CC(C)C)NC(=O)[C@H](Cc2ccc(O)cc2)NC(=O)[C@H](CCC(N)=O)NC(=O)[C@H](Cc2ccccc2)NC(=O)[C@H](CO)NC(=O)[C@H](C)NC(=O)[C@H](CCC(N)=O)NC1=O` [Compound C236], in data set [2], the tissue uptake at 4 h is 65.1 %ID/g and the tissue uptake at 24 h is 42.1 %ID/g. Further, in data set [3], the half-life is greater than 12 h. The half-life in data set [3] (plasma) is greater than 12 h.
As for “{DOTA-PEG4}-CEYDEQFFTALKRLRGADICSYIQASFQYLPGLCIEEILDNLGCS-OH (disulfide 1-34, 20-44) [Compound C250]”, in data set [2], the tissue uptake at 4 h was 67.5 %ID/g and the tissue uptake at 24 h stood at 34.9 %ID/g. In addition, in data set [3], the half-life was greater than 12 h. In data set [3] (plasma), the half-life was greater than 12 h.
“{DOTA-PEG4}-CEYDEEFFTALARLRGDDICSYIQAKFQYLPGLCIEEILDNLGCS-OH (disulfide 1-34, 20-44 (inferred)) [Compound C293]” gave a tissue uptake at 4 h in data set [2] of 55.8 %ID/g. In data set [2], this compound gave a tissue uptake at 24 h of 32.6 %ID/g. Besides, the half-life in data set [3] and in data set [3] (plasma) was greater than 12 h in each case.
